# Measured values as given in patent US10357473B2, “Method for treating a prolifitive disorder with a cis-diamine platinum complex” (KING FAHD UNIVERSITY OF PETROLEUM AND MINERALS, priority 2017, dated 2019).
# Key:
# Type in all cases: cell-based
# [1] = system: A549 (human lung carcinoma) cell line; test: In vitro cytotoxic activity (MTT assay) against A549 cells; settings: for in vitro cytotoxicity against A549 compared in words with cisplatin / carboplatin: A549 cells, comparison of IC50 values; for IC50: MTT assay, cultures incubated 24 h with compound, ± standard deviation, three independent experiments
# Method: (§1) The cis-[Pt(NH3)2(thione)2].2NO3 complexes were evaluated for their in vitro cytotoxic activity against A549 (human lung cancer), MCF-7 (human breast cancer) and HTC15 (human colon cancer) cell lines. The cells were seeded at 4×10^3 cells/well in 100 μL DMEM containing 10% FBS in 96-wells tissue culture plate and incubated for 72 h at 37° C., 5% CO2 in the air and 90% relative humidity in the CO2 incubator. […] The medium of wells was discarded and 100 μL DMEM containing MTT (3-(4,5-Dimethylthiazol-2-yl)-2,5-diphenyltetrazolium Bromide) (5 mg/mL) was added to the wells and incubated in a CO2 incubator at 37° C. in dark for 4 h. After incubation, purple colored formazan (artificial chromogenic dye, a product of the reduction of water insoluble tetrazolium salts e.g., MMT by dehydrogenases and reductases) in the cells is produced and appeared as dark crystals in the bottom of the wells. The resultant crystals were solubilized by adding 100 μL of DMSO in each well. The solution was thoroughly mixed to dissolve the formazan crystals, producing a purple solution. The absorbance of the 96-wells plate was taken at 570 nm with Labsystems Multiskan EX-Enzyme-linked immunosorbent assay (EX-ELISA) reader against a reagent blank. The IC50 values were calculated from three independent experiments by generating an equation of logarithmic trendline of percentage cell viability against concentration compounds in Microsoft excel.
# (§2) The MTT assay was performed in three independent experiments, each in triplicate. The cancer cell lines used are A549 (human lung cancer), MCF-7 (human breast cancer) and HTC15 (human colon cancer) cell lines.
# [2] = system: HCT15 (human colon adenocarcinoma) cell line; test: In vitro cytotoxic activity (MTT assay) against HCT15 cells; settings: for cytotoxicity against HCT15 compared in words with cisplatin / carboplatin: HCT15 cells, comparison of IC50 values; for IC50: MTT assay, cultures incubated 24 h with compound, ± standard deviation, three independent experiments
# Method: as §1
# (§3) The IC50 values were obtained from curves between the complexes concentration and viability percentage of the cells, and are listed, in Table 3.
# as §2, with “The experimental results are presented as the micro-mole concentration of 50%/0 cell growth inhibition (IC50) of each drug. The MTT” for “The MTT”
# [3] = system: MCF7 (human breast carcinoma) cell line; test: In vitro cytotoxic activity (MTT assay) against MCF7 cells; settings: for IC50: MTT assay, cultures incubated 24 h with compound, ± standard deviation, three independent experiments; for antiproliferative potency against MCF7 in words, compared with cisplatin / carboplatin: MCF7 cells, comparison of IC50 values
# Method: as §1, §3
# as §2, with “The experimental results are presented as the micro-mole concentration of 50%/0 cell growth inhibition (IC50) of each drug. The MTT” for “The MTT”
compound,measurement,setting,value
"O=[N+]([O-])[O-].O=[N+]([O-])[O-].[NH3+][Pt-2]([NH3+])([S+]=C1NCCCCN1)[S+]=C1NCCCCN1 [Compound 10, cis-[Pt(NH3)2(Diap)2].2NO3]",in vitro cytotoxicity against A549 compared in words with cisplatin / carboplatin,[1],comparable to cisplatin
same,IC50,[1],52 µM
same,cytotoxicity against HCT15 compared in words with cisplatin / carboplatin,[2],lower IC50 values
same,IC50,[2],41 ± 1 µM
same,IC50,[3],71 ± 1 µM
"CN1CCN(C)C1=[S+][Pt-2]([NH3+])([NH3+])[S+]=C1N(C)CCN1C.O=[N+]([O-])[O-].O=[N+]([O-])[O-] [Compound 3, cis-[Pt(NH3)2(Me2Imt)2].2NO3]",IC50,[1],68 ± 1 µM
same,cytotoxicity against HCT15 compared in words with cisplatin / carboplatin,[2],nearly same value as carboplatin
same,IC50,[2],54 ± 1 µM
same,"antiproliferative potency against MCF7 in words, compared with cisplatin / carboplatin",[3],greater cytotoxic effect than carboplatin
same,IC50,[3],58 µM
"CCN1CCCNC1=[S+][Pt-2]([NH3+])([NH3+])[S+]=C1NCCCN1CC.O=[N+]([O-])[O-].O=[N+]([O-])[O-] [Compound 9, cis-[Pt(NH3)2(EtDiaz)2].2NO3]",in vitro cytotoxicity against A549 compared in words with cisplatin / carboplatin,[1],nearly same as that of carboplatin
same,IC50,[1],73 ± 1 µM
same,IC50,[2],90 ± 2 µM
same,IC50,[3],103 ± 3 µM
"CCN1CCN(CC)C1=[S+][Pt-2]([NH3+])([NH3+])[S+]=C1N(CC)CCN1CC.O=[N+]([O-])[O-].O=[N+]([O-])[O-] [Compound 4, cis-[Pt(NH3)2(Et2Imt)2].2NO3]",IC50,[1],108 ± 2 µM
same,IC50,[2],97 ± 3 µM
same,IC50,[3],97 ± 3 µM
"O=[N+]([O-])[O-].O=[N+]([O-])[O-].[NH3+][Pt-2]([NH3+])([S+]=C1NCCCN1)[S+]=C1NCCCN1 [Compound 8, cis-[Pt(NH3)2(Diaz)2].2NO3]",in vitro cytotoxicity against A549 compared in words with cisplatin / carboplatin,[1],nearly same as that of carboplatin
same,IC50,[1],75 ± 2 µM
same,IC50,[2],76 ± 1 µM
same,IC50,[3],90 ± 2 µM
"CC(C)N1CCNC1=[S+][Pt-2]([NH3+])([NH3+])[S+]=C1NCCN1C(C)C.O=[N+]([O-])[O-].O=[N+]([O-])[O-] [Compound 6, cis-[Pt(NH3)2(iPrImt)2].2NO3]",in vitro cytotoxicity against A549 compared in words with cisplatin / carboplatin,[1],comparable to cisplatin
same,IC50,[1],55 µM
same,cytotoxicity against HCT15 compared in words with cisplatin / carboplatin,[2],lower IC50 values
same,IC50,[2],48 ± 1 µM
same,IC50,[3],81 ± 3 µM
"CCCN1CCNC1=[S+][Pt-2]([NH3+])([NH3+])[S+]=C1NCCN1CCC.O=[N+]([O-])[O-].O=[N+]([O-])[O-] [Compound 5, cis-[Pt(NH3)2(PrImt)2].2NO3]",in vitro cytotoxicity against A549 compared in words with cisplatin / carboplatin,[1],nearly same as that of carboplatin
same,IC50,[1],72 ± 2 µM
same,cytotoxicity against HCT15 compared in words with cisplatin / carboplatin,[2],lower IC50 values
same,IC50,[2],51 ± 2 µM
same,IC50,[3],74 ± 2 µM
"N.N.O=C([O-])C1(C(=O)[O-])CCC1.[Pt+2] [Carboplatin, reference compound]",IC50,[1],70 ± 2 µM
same,IC50,[2],53 ± 2 µM
same,"antiproliferative potency against MCF7 in words, compared with cisplatin / carboplatin",[3],poor antiproliferative potency
same,IC50,[3],63 ± 2 µM
"CC(C)N1CCN(C(C)C)C1=[S+][Pt-2]([NH3+])([NH3+])[S+]=C1N(C(C)C)CCN1C(C)C.O=[N+]([O-])[O-].O=[N+]([O-])[O-] [Compound 7, cis-[Pt(NH3)2(iPr2Imt)2].2NO3]",in vitro cytotoxicity against A549 compared in words with cisplatin / carboplatin,[1],comparable to cisplatin
same,IC50,[1],50 µM
same,cytotoxicity against HCT15 compared in words with cisplatin / carboplatin,[2],lower IC50 values
same,IC50,[2],52 ± 1 µM
same,IC50,[3],78 ± 2 µM
"N.N.[Cl][Pt][Cl] [Cisplatin, cis-diaminedichloridoplatinum(II), reference compound]",IC50,[1],42 ± 2 µM
same,IC50,[2],32 ± 2 µM
same,IC50,[3],23 ± 3 µM
"CN1CCNC1=[S+][Pt-2]([NH3+])([NH3+])[S+]=C1NCCN1C.O=[N+]([O-])[O-].O=[N+]([O-])[O-] [Compound 2, cis-[Pt(NH3)2(MeImt)2].2NO3]",IC50,[1],85 ± 1 µM
same,IC50,[2],75 ± 2 µM
same,IC50,[3],82 ± 1 µM
"O=[N+]([O-])[O-].O=[N+]([O-])[O-].[NH3+][Pt-2]([NH3+])([S+]=C1NCCN1)[S+]=C1NCCN1 [Compound 1, cis-[Pt(NH3)2(Imt)2].2NO3]",in vitro cytotoxicity against A549 compared in words with cisplatin / carboplatin,[1],comparable to cisplatin
same,IC50,[1],53 µM
same,IC50,[2],82 ± 1 µM
same,IC50,[3],101 ± 2 µM
